According to US10570179B2, “Substituted urea depsipeptide analogs as activators of the CLPP endopeptidase” (priority 2016, dated 2020):
In brackets after ≈: the same amount, converted by molar mass. Like-named read-outs stand apart in the source and are kept apart here. Numbered stars: 1 amine (or outer) side, 2 acyl side, 3 side chain; on linkers, the order of the positions; unused ones are H or OH. Bridge positions count the residues as written; N and C are the ends. Square brackets hold non-standard residues; d marks the D form. Peptide text beside a SMILES is read from it. * marks the point of attachment. Piperazine(2S-CO,4-Me) = CN1CCN[C@H](C(=O)O)C1; Phe(3-OMe) = COc1cccc(C[C@H](N)C(=O)O)c1; Phe(3-Me) = Cc1cccc(C[C@H](N)C(=O)O)c1; NH(4-Cl-2-F-phenyl) = Fc1cc(Cl)ccc1N*; Pro(4R-Me) = C[C@H]1CN[C@H](C(=O)O)C1; Hyp = O=C(O)[C@@H]1C[C@@H](O)CN1; NH(4-Me-phenyl) = Cc1ccc(N*)cc1; aThr = C[C@H](O)[C@H](N)C(=O)O; Pip = O=C(O)[C@@H]1CCCCN1; X3 = c1cc2c(cc1N*)OCCO2; CO = O=C([*:1])[*:2]

Legend:
[1] = biological target: T1, S. aureus ClpP (Sa-ClpP) (Staphylococcus aureus, UniProt Q2G036); assay: Casein-BODIPY digestion assay (ClpP activation); format: biochemical
T1 construct: made in house; host or cells: E. coli BL21 (DE3)

[2] = system: E. faecails; assay: Minimal inhibitory concentration, microbroth dilution; format: cell-based; conditions: Enterococcus faecalis
Outline: (§1)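 Compound was diluted twofold in the appropriate broth. Bacterial suspension (approx. 10^5 cfu/mL) was then added in equal volume, giving a maximum test concentration of 200 μM. After aerobic overnight incubation at 37 °C, wells were inspected visually for growth.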

[3] = system: MRSA NRS70; assay: as above; format: cell-based; conditions: Staphylococcus aureus
Outline: as §1

[4] = system: S. aureus ATCC 29213; assay: as above; format: cell-based; conditions: Staphylococcus aureus
Outline: as §1

[5] = system: S. aureus USA 300; assay: as above; format: cell-based; conditions: Staphylococcus aureus
Outline: as §1

[6] = Plasma stability assay; format: in vitro ADME, mouse
Protocol: The plasma stability property of early drug discovery compounds can influence the in vivo efficacy of the test compounds/drugs. Human and/or mouse plasma degradation is determined using multiple time points to monitor the rate of disappearance of the parent compound during incubation.
Sample preparation for plasma stability was modified from Di et al. (2005) Int. J. Pharm. 297(1-2): 110-119. A set of incubation times of 0, 3, 24, and 48 hour were used. DMSO stock solutions of test compounds were prepared at 10 mM concentration. 1.8 μL of each test compound was each added directly to 1.8 mL of human/mouse plasma to get the final concentration of 10 μM. This compound/matrix was mixed and 70 μL was transferred to 8 time points plates (each in triplicate wells). For the Time 0 plate, 210 μL of cold acetonitrile with internal standard (4 μg/mL warfarin) was added to each well and no incubation needed. For other seven time points' plate, the plate was incubated at 37° C. for required time, followed by quenching of the reaction by adding 210 μL of cold acetonitrile with internal standard (4 μg/ml warfarin) to each well. All of the plates were sealed and mixed well at 600 rpm for 10 min and were centrifuged at 4000 rpm for 20 min. The supernatants (120 μL) were transferred to analytical plates for analysis by LCMS. Conditions for Waters ACQUITY-UPLC-MS-UV system was described separately. The plasma stability was evaluated via the half-life from least-squares fit of the multiple time points based on first-order kinetics.

[7] = MIC, read-out: Minimal Inhibitory Concentrations (μM) E. faecails
[8] = MIC, read-out: Minimal Inhibitory Concentrations (μM) MRSA NRS70
[9] = ATCC29213, MIC, read-out: Minimal Inhibitory Concentrations (μM) S. aureus ATCC 29213
[10] = USA300, MIC, read-out: Minimal Inhibitory Concentrations (μM) S. aureus USA 300

T1 sequence (Q2G036 whole entry): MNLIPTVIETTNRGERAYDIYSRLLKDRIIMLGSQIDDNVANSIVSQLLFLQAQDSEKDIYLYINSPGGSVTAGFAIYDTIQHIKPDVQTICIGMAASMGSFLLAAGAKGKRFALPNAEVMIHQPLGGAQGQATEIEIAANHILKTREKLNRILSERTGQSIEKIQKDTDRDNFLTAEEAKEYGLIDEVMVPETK

Which EC50 [1] does the source give for `Cc1cccc(C[C@H](NC(=O)Nc2ccc(Cl)cc2F)C(=O)N[C@@H]2C(=O)N3CCC[C@H]3C(=O)N3CCCC[C@H]3C(=O)N[C@@H](C)C(=O)N3C[C@H](C)C[C@H]3C(=O)O[C@H]2C)c1` [Compound 3, (S)-2-(3-(4-CHLORO-2-FLUOROPHENYL)UREIDO)-3-(M-TOLYL)-N-((2R,6S,8AS,14AS,20S,21S,23AS)-2,6,21-TRIMETHYL-5,8,14,19,23-PENTAOXOOCTADECAHYDRO-1H,5H,14H,19H-PYRIDO[2,1-I]DIPYRROLO[2,1-C:2′,1′-L][1]OXA[4,7,10,13]TETRAAZACYCLOHEXADECIN-20-YL)PROPANAMIDE] ({NH(4-Cl-2-F-phenyl)-CO}-[Phe(3-Me)][aThr]P[Pip]A[Pro(4R-Me)]; ester 2-C) here?
Its EC50 is 390 ± 20 nM.

And the MIC [2, 7]?
The MIC was 0.078 µM (≈ 0.0643 µg/mL).

And the MIC [3, 8]?
Its MIC is 0.078 µM (≈ 0.0643 µg/mL).

What about the MIC [4, 9] of the same compound?
Its MIC is 0.156 µM (≈ 0.129 µg/mL).

What about the MIC [5, 10] of the same compound?
The MIC was 0.156 µM (≈ 0.129 µg/mL).

And the “Mouse (hr)” value ([6]; mouse, 10 μM)?
Its value is >>48 hr.

For `COc1cccc(C[C@H](NC(=O)Nc2ccc(Cl)cc2F)C(=O)N[C@H]2COC(=O)[C@@H]3C[C@@H](C)CN3C(=O)[C@H](C)NC(=O)[C@@H]3CN(C)CCN3C(=O)[C@@H]3CCCN3C2=O)c1` [Compound 19, (S)-2-(3-(4-CHLORO-2-FLUOROPHENYL)UREIDO)-3-(3-METHOXYPHENYL)-N-((6AS,12S,15AS,17R,21S,23AS)-2,17,21-TRIMETHYL-6,11,15,20,23-PENTAOXOOCTADECAHYDRO-2H,6H,11H,15H-PYRAZINO[2,1-I]DIPYRROLO[2,1-C:2′,1′-L][1]OXA[4,7,10,13]TETRAAZACYCLOHEXADECIN-12-YL)PROPANAMIDE] ({NH(4-Cl-2-F-phenyl)-CO}-[Phe(3-OMe)]SP[Piperazine(2S-CO,4-Me)]A[Pro(4R-Me)]; ester 2-C), which EC50 [1] is on record?
Its EC50 is 2520 ± 200 nM.

What about the MIC [2, 7] of the same compound?
The MIC was 10 µM (≈ 8.41 µg/mL).

And the MIC [3, 8]?
The MIC was 10 µM (≈ 8.41 µg/mL).

What about the MIC [4, 9] of the same compound?
The MIC was 10 µM (≈ 8.41 µg/mL).

And the MIC [5, 10]?
The MIC was 10 µM (≈ 8.41 µg/mL).

What about the “Mouse” value ([6]; mouse, 10 μM) of the same compound?
The value was 12.82 h.

What does the source list for `Cc1ccc(NC(=O)N[C@@H](Cc2cccc(C)c2)C(=O)N[C@@H]2C(=O)N3CCC[C@H]3C(=O)N3CCCC[C@H]3C(=O)N[C@@H](C)C(=O)N3C[C@H](C)C[C@H]3C(=O)O[C@H]2C)cc1` [Compound 1, (S)-3-(M-TOLYL)-2-(3-(P-TOLYL)UREIDO)-N-((2R,6S,8AS,14AS,20S,21S,23AS)-2,6,21-TRIMETHYL-5,8,14,19,23-PENTAOXOOCTADECAHYDRO-1H,5H,14H,19H-PYRIDO[2,1-I]DIPYRROLO[2,1-C:2′,1′-L][1]OXA[4,7,10,13]TETRAAZACYCLOHEXADECIN-20-YL)PROPANAMIDE] ({NH(4-Me-phenyl)-CO}-[Phe(3-Me)][aThr]P[Pip]A[Pro(4R-Me)]; ester 2-C)?
EC50 [1]: 430 ± 20 nM; MIC ([2]; read-out: Minimal Inhibitory Concentrations (μM) E. faecails, MIC): 1.25 µM (≈ 0.982 µg/mL); MIC ([3]; read-out: Minimal Inhibitory Concentrations (μM) MRSA NRS70, MIC): 0.156 µM (≈ 0.123 µg/mL); MIC ([4]; ATCC29213, read-out: Minimal Inhibitory Concentrations (μM) S. aureus ATCC 29213, MIC): 0.313 µM (≈ 0.246 µg/mL); MIC ([5]; USA300, read-out: Minimal Inhibitory Concentrations (μM) S. aureus USA 300, MIC): < 0.098 µM; Mouse (hr) ([6]; plasma stability half-life, mouse plasma, 37° C.): >>48 hr

For `Cc1cccc(C[C@H](NC(=O)Nc2ccc(Cl)cc2F)C(=O)N[C@H]2COC(=O)[C@@H]3C[C@@H](C)CN3C(=O)[C@H](C)NC(=O)[C@@H]3CN(C)CCN3C(=O)[C@@H]3CCCN3C2=O)c1` [Compound 13, (S)-2-(3-(4-CHLORO-2-FLUOROPHENYL)UREIDO)-3-(M-TOLYL)-N-((6AS,12S,15AS,17R,21S,23AS)-2,17,21-TRIMETHYL-6,11,15,20,23-PENTAOXOOCTADECAHYDRO-2H,6H,11H,15H-PYRAZINO[2,1-I]DIPYRROLO[2,1-C:2′,1′-L][1]OXA[4,7,10,13]TETRAAZACYCLOHEXADECIN-12-YL)PROPANAMIDE] ({NH(4-Cl-2-F-phenyl)-CO}-[Phe(3-Me)]SP[Piperazine(2S-CO,4-Me)]A[Pro(4R-Me)]; ester 2-C), which EC50 [1] is on record?
Its EC50 is 1520 ± 100 nM.

And the MIC [2, 7]?
Its MIC is 0.625 µM (≈ 0.516 µg/mL).

What about the MIC [3, 8] of the same compound?
Its MIC is 1.25 µM (≈ 1.03 µg/mL).

And the MIC [4, 9]?
The MIC was 1.25 µM (≈ 1.03 µg/mL).

And the MIC [5, 10]?
The MIC was 2.5 µM (≈ 2.06 µg/mL).

What about the “Mouse” value ([6]; mouse, 10 μM) of the same compound?
The value was 10.74 ± 0.8 h.

Which results are given for `Cc1cccc(C[C@H](NC(=O)Nc2ccc3c(c2)OCCO3)C(=O)N[C@@H]2C(=O)N3C[C@H](O)C[C@H]3C(=O)N3CCCC[C@H]3C(=O)N[C@@H](C)C(=O)N3C[C@H](C)C[C@H]3C(=O)O[C@H]2C)c1` [Compound 28, (S)-2-(3-(2,3-DIHYDROBENZO[B][1,4]DIOXIN-6-YL)UREIDO)-N-((2R,6S,8AS,14AS,16R,20S,21S,23AS)-16-HYDROXY-2,6,21-TRIMETHYL-5,8,14,19,23-PENTAOXOOCTADECAHYDRO-1H,5H,14H,19H-PYRIDO[2,1-I]DIPYRROLO[2,1-C:2′,1′-L][1]OXA[4,7,10,13]TETRAAZACYCLOHEXADECIN-20-YL)-3-(M-TOLYL)PROPANAMIDE] ({X3-CO}-[Phe(3-Me)][aThr][Hyp][Pip]A[Pro(4R-Me)]; ester 2-C)?
EC50 [1]: 910 ± 80 nM; MIC [2, 7]: 0.625 µM (≈ 0.529 µg/mL); MIC [3, 8]: 2.5 µM (≈ 2.11 µg/mL); MIC [4, 9]: 2.5 µM (≈ 2.11 µg/mL); MIC [5, 10]: 2.5 µM (≈ 2.11 µg/mL); Mouse ([6]; mouse, 10 μM): >50 h
